# Measured values from ChEMBL document CHEMBL5352410, “Discovery of novel selenium-containing azole derivatives as antifungal agents by exploiting the hydrophobic cleft of CYP51” (Eur J Med Chem, 2022).
# Active and inactive are the calls of the source. The rule behind the calls is not given here.
# What was measured:
# [1] = biological target: T1, Lanosterol 14-alpha demethylase (Candida albicans (strain SC5314 / ATCC MYA-2876) (Yeast), UniProt P10613); test: Inhibition of CYP51 of Candida albicans ATCC SC5314 assessed as increase in lanosterol level at 1 ug/ml incubated for 16 hrs by GC-MS analysis (reference value: 1.7 %); set-up: scale not given: the % may be the effect or the level left; conditions: at 1 µg/mL
# T1 sequence (P10613 whole entry): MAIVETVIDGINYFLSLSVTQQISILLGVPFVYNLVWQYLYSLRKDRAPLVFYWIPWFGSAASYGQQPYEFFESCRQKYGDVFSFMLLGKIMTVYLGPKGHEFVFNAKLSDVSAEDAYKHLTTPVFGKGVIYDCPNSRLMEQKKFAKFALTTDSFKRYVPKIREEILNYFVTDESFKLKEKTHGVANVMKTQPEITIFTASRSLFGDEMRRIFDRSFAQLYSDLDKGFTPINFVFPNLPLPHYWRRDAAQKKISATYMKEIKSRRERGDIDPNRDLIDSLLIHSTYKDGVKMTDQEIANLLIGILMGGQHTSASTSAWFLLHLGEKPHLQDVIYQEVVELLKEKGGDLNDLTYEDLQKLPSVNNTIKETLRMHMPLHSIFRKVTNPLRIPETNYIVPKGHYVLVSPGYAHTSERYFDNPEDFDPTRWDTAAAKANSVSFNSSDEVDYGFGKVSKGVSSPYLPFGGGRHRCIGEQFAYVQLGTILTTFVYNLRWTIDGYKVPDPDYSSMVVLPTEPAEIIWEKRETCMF
# [2] = biological target: T1, Lanosterol 14-alpha demethylase; test: Inhibition of CYP51 of Candida albicans ATCC SC5314 assessed as increase in eburicol level at 1 ug/ml incubated for 16 hrs by GC-MS analysis (reference value: 0 %); set-up: scale not given: the % may be the effect or the level left; conditions: at 1 µg/mL
# [3] = Metabolic stability in mouse liver microsome assessed as clearance; assay type: ADME; conditions: liver microsomes, read-out: CLH
# Candida albicans [4] = test: Antifungal activity against FCZ-resistant Candida albicans 17# by CLSI based broth microdilution method; assay type: functional
# Candida albicans [5] = test: Antibiofilm activity against Candida albicans CPCC400616 assessed as sessile minimum inhibitory concentration measured after 6 hrs by XTT assay; assay type: functional
# Candida albicans [6] = test: Fungicidal activity against FCZ-resistant Candida albicans CaR; assay type: functional
# [7] = biological target: T1, Lanosterol 14-alpha demethylase; test: Inhibition of CYP51 of Candida albicans ATCC SC5314 assessed as increase in obtusifoliol level at 8 ug/ml incubated for 16 hrs by GC-MS analysis (reference value: 0 %); set-up: scale not given: the % may be the effect or the level left; conditions: at 8 µg/mL
# Candida albicans [8] = test: Antibiofilm activity against Candida albicans SC5314 assessed as sessile minimum inhibitory concentration measured after 6 hrs by XTT assay; assay type: functional
# Candida albicans [9] = test: Fungicidal activity against Candida albicans sc5314; assay type: functional
# Candida albicans [10] = test: Antibiofilm activity against Candida albicans SC5314 assessed as sessile minimum inhibitory concentration measured after 3 hrs by XTT assay; assay type: functional
# Candida albicans [11] = test: Fungicidal activity against FCZ-resistant Candida albicans 632; assay type: functional
# [12] = biological target: T1, Lanosterol 14-alpha demethylase; test: Inhibition of CYP51 of Candida albicans ATCC SC5314 assessed as increase in obtusifoliol level at 1 ug/ml incubated for 16 hrs by GC-MS analysis (reference value: 0 %); set-up: scale not given: the % may be the effect or the level left; conditions: at 1 µg/mL
# [13] = Cytotoxicity against human HL-60 cells by MTT assay; assay type: toxicity, cell-based
# [14] = biological target: T1, Lanosterol 14-alpha demethylase; test: Inhibition of CYP51 of Candida albicans ATCC SC5314 assessed as increase in eburicol level at 4 ug/ml incubated for 16 hrs by GC-MS analysis (reference value: 0 %); set-up: scale not given: the % may be the effect or the level left; conditions: at 4 µg/mL
# [15] = Subacute toxicity in water diet-fed Kunming mouse assessed as liver edema at 100 to 200 mg/kg, IG measured after 7 to 14 days by microscopic analysis; assay type: organism-based; conditions: in vivo, po, dose lower 100 mg/kg, time lower 7 day, dose upper 200 mg/kg, time upper 14 day
# [16] = Subacute toxicity in water diet-fed Kunming mouse assessed as adverse reactions at 100 to 200 mg/kg, IG measured for 48 hrs; assay type: organism-based; conditions: in vivo, po, dose 100-200 mg/kg
# Candida albicans [17] = test: Antifungal activity against FCZ-resistant Candida albicans 901 by CLSI based broth microdilution method; assay type: functional
# Candida albicans [18] = test: Antibiofilm activity against Candida albicans CPCC400616 assessed as sessile minimum inhibitory concentration measured after 24 hrs by XTT assay; assay type: functional
# Candida albicans [19] = test: Antibiofilm activity against Candida albicans CPCC400616 assessed as sessile minimum inhibitory concentration measured after 1.5 hrs by XTT assay; assay type: functional
# Candida albicans [20] = test: Antifungal activity against FCZ-resistant Candida albicans 904 by CLSI based broth microdilution method; assay type: functional
# [21] = biological target: T1, Lanosterol 14-alpha demethylase; test: Inhibition of CYP51 of Candida albicans ATCC SC5314 assessed as decrease in ergosterol level by measuring residual activity at 1 ug/ml incubated for 16 hrs by GC-MS analysis (reference value: 98.3 %); conditions: at 1 µg/mL
# [22] = Acute toxicity in water diet-fed Kunming mouse assessed as animal death at 500 mg/kg, IG measured for 7 days; assay type: organism-based; conditions: in vivo, po, 168 h, time 7 day
# Candida albicans [23] = test: Fungicidal activity against FCZ-resistant Candida albicans 901; assay type: functional
# [24] = Cytotoxicity against human PC-3 cells by MTT assay; assay type: toxicity, cell-based
# [25] = Acute toxicity in water diet-fed Kunming mouse assessed as change in body weight at 500 mg/kg, IG measured for 7 days; assay type: organism-based; conditions: in vivo, po, 168 h, time 7 day
# Candida albicans [26] = test: Fungicidal activity against FCZ-resistant Candida albicans 904; assay type: functional
# [27] = biological target: T1, Lanosterol 14-alpha demethylase; test: Inhibition of CYP51 of Candida albicans ATCC SC5314 assessed as increase in lanosterol level at 2 ug/ml incubated for 16 hrs by GC-MS analysis (reference value: 1.7 %); set-up: scale not given: the % may be the effect or the level left; conditions: at 2 µg/mL
# [28] = biological target: T1, Lanosterol 14-alpha demethylase; test: Inhibition of CYP51 of Candida albicans ATCC SC5314 assessed as decrease in ergosterol level by measuring residual activity at 8 ug/ml incubated for 16 hrs by GC-MS analysis (reference value: 98.3 %); conditions: at 8 µg/mL
# [29] = Cytotoxicity against human MDA-MB-231 cells by MTT assay; assay type: toxicity, cell-based
# [30] = biological target: T1, Lanosterol 14-alpha demethylase; test: Inhibition of CYP51 of Candida albicans ATCC SC5314 assessed as increase in eburicol level at 8 ug/ml incubated for 16 hrs by GC-MS analysis (reference value: 0 %); set-up: scale not given: the % may be the effect or the level left; conditions: at 8 µg/mL
# Candida albicans [31] = test: Antifungal activity against Candida albicans ATCC SC5314 infected in mouse model assessed as reduction in kidney fungal burden at 6 to 12 mg/kg, ip measured after 5 consecutive days by colony forming unit assay; assay type: functional, organism-based; conditions: dose 6-12 mg/kg, time 5.0 day
# [32] = Subacute toxicity in water diet-fed Kunming mouse assessed as lesions in liver at 100 to 200 mg/kg, IG measured after 8 to 15 days; assay type: organism-based; conditions: in vivo, po, dose lower 100 mg/kg, time lower 8 day, dose upper 200 mg/kg, time upper 15 day
# Candida albicans [33] = test: Antifungal activity against FCZ-resistant Candida albicans 632 by CLSI based broth microdilution method; assay type: functional
# [34] = biological target: T1, Lanosterol 14-alpha demethylase; test: Inhibition of CYP51 of Candida albicans ATCC SC5314 assessed as increase in lanosterol level at 4 ug/ml incubated for 16 hrs by GC-MS analysis (reference value: 1.7 %); set-up: scale not given: the % may be the effect or the level left; conditions: at 4 µg/mL
# [35] = Subacute toxicity in water diet-fed Kunming mouse assessed as animal death at 100 to 200 mg/kg, IG measured after 7 to 14 days of continuous administration; assay type: organism-based; conditions: in vivo, po, dose lower 100 mg/kg, time lower 7 day, dose upper 200 mg/kg, time upper 14 day
# Candida albicans [36] = test: Antibiofilm activity against Candida albicans SC5314 assessed as sessile minimum inhibitory concentration measured after 24 hrs by XTT assay; assay type: functional
# [37] = biological target: T1, Lanosterol 14-alpha demethylase; test: Inhibition of CYP51 of Candida albicans ATCC SC5314 assessed as decrease in ergosterol level by measuring residual activity at 4 ug/ml incubated for 16 hrs by GC-MS analysis (reference value: 98.3 %); conditions: at 4 µg/mL
# Candida albicans [38] = test: Antibiofilm activity against Candida albicans CPCC400616 assessed as sessile minimum inhibitory concentration measured after 3 hrs by XTT assay; assay type: functional
# [39] = biological target: T1, Lanosterol 14-alpha demethylase; test: Inhibition of CYP51 of Candida albicans ATCC SC5314 assessed as decrease in ergosterol level by measuring residual activity at 2 ug/ml incubated for 16 hrs by GC-MS analysis (reference value: 98.3 %); conditions: at 2 µg/mL
structure (smiles),measurement,setting,value
Clc1ccc(C(Cn2ccnc2)[Se][Se]C(Cn2ccnc2)c2ccc(Cl)cc2Cl)c(Cl)c1 (stereo unspecified),Activity,[1],8.4%
same,Activity,[2],60.8%
same,CLint scaled,[3],134 mL/min/kg
same,MIC,Candida albicans [4],8 µg/mL
same,MIC50,Candida albicans [5],1 µg/mL
same,MIC80,Candida albicans [5],4 µg/mL
same,MFC,Candida albicans [6],16 µg/mL
same,Activity,[7],19.8%
same,MIC50,Candida albicans [8],0.5 µg/mL
same,MIC80,Candida albicans [8],4 µg/mL
same,MFC,Candida albicans [9],8 µg/mL
same,MIC50,Candida albicans [10],0.5 µg/mL
same,MIC80,Candida albicans [10],4 µg/mL
same,MFC,Candida albicans [11],16 µg/mL
same,Activity,[12],6.4%
same,IC50,[13],32.5 µM
same,Activity,[14],69.5%
same,Activity,[15],Toxic
same,Activity,[16],Non-Toxic
same,MIC,Candida albicans [17],2 µg/mL
same,MIC50,Candida albicans [18],4 µg/mL
same,MIC80,Candida albicans [18],4 µg/mL
same,MIC50,Candida albicans [19],0.5 µg/mL
same,MIC80,Candida albicans [19],2 µg/mL
same,MIC,Candida albicans [20],4 µg/mL
same,Activity,[21],24.4%
same,Activity,[22],Non-Toxic
same,MFC,Candida albicans [23],2 µg/mL
same,IC50,[24],1.43 µM
same,Activity,[25],Non-Toxic
same,MFC,Candida albicans [26],4 µg/mL
same,Activity,[27],22.6%
same,Activity,[28],2.2%
same,IC50,[29],6.25 µM
same,Activity,[30],61.3%
same,Activity,Candida albicans [31],Active
same,Activity,[32],Non-Toxic
same,MIC,Candida albicans [33],4 µg/mL
same,Activity,[34],14.2%
same,Activity,[35],Non-Toxic
same,MIC50,Candida albicans [36],0.5 µg/mL
same,MIC80,Candida albicans [36],32 µg/mL
same,Activity,[37],2.7%
same,MIC50,Candida albicans [38],0.5 µg/mL
same,MIC80,Candida albicans [38],4 µg/mL
same,Activity,[39],2.4%
